# Experimental data from US7687079B2, “Methods of treating ileus” (priority 2002, dated 2010).
# What was measured:
# [1] = test system: IL-10 mRNA; assay: Example 3 IL-10 mRNA by SYBR green real time RT-PCR; assay type: in vivo, mouse; settings: IM-CO mice
# Experimental: Ileus was induced in mice by gentle manipulation of the small intestine. An incision was made to expose the abdominal cavity of the mouse, and bowel manipulation was performed by gentle poking and prodding of the small intestine (see, e.g., Schwarz et al., Gastroenterology 121(6):1354-1357 (2001)). […] Mice were exposed to CO by inhalation (250 and 500 ppm) for 1 hour immediately prior to intestinal manipulation and during the entire 24-hour recovery period. Intestinal contractility was assessed in vitro by measuring circular muscle strip contractions in response to bethanechol (0.3-300 μM) and in vivo by determining intestinal transit from the distribution of orally-fed, fluorescein-labeled dextran and calculating geometric center as described in Example 1 above. HO-1 and IL-10 mRNA expression were determined by SYBR green real time RT-PCR from extracts of muscularis extemae, as described in Example 1 above. Release of nitric oxide (NO), a potent inhibitor of smooth muscle contractility, was estimated by measuring serum total nitrite, also described in Example 1 above.
# [2] = test system: IL-6 protein; assay: IL-6 protein release from isolated muscularis (ELISA); assay type: in vivo, mouse
# Experimental: (§1) Protein and Nitric Oxide Determinations. The small bowel of control and mice subjected to intestinal manipulation was removed under sterile conditions, 4 or 24 hours post-operatively, leaving the colon in situ. The small intestine was transferred to a beaker containing chilled Hanks balanced salt solution (Sigma, St. Louis, Mo.) with 200 U/ml penicillin G and 200 μg/ml streptomycin (HBSS), the lumen flushed, and the tissue transferred to a second beaker of HBSS. The muscularis was harvested as described above for real time RT-PCR. Tissues were maintained under sterile conditions at 3 to 5° C. throughout the harvesting procedure. Isolated muscularis was blotted onto sterile gauze, and the wet weight determined to obtain aliquots of 40 to 60 mg. […]
# (§2) After the incubation period, the muscle tissue was pelleted, and aliquots of culture medium were frozen in liquid nitrogen and stored at −80° C. The levels of IL-6, IL-1β, PGE2, and IL-10 proteins secreted into the culture medium were determined using commercially available ELISA kits (R&D Systems, Minneapolis, Minn.) according to the manufacturer's instructions. […] Nitrate/nitrate levels were measured 24 hrs postoperatively using commercially available test kit (Oxford Biomedical Research, Oxford, Mich.) and quantified according to the manufacturer's directions. […]
# [3] = test system: total nitrite (NO production); assay: total nitrite release from muscularis extracts (index of iNOS activity); assay type: in vivo, mouse; settings: IM + CO vs IM, 24 hours after surgery
# Experimental: as §1, §2
# [4] = test system: MPO-positive leukocytes in intestinal muscularis; assay: myeloperoxidase histochemistry, leukocyte recruitment into intestinal muscularis after SITx; assay type: in vivo, rat
# Experimental: Muscularis whole mounts were prepared from the mid small intestine collected 24 hours post-operatively. Segments of intestine were immersed in KRB in a Sylgaard™-lined glass dish and pinned without stretching along the mesenteric border. The length and width of the segments were measured with a caliper. The […] was then opened along the mesenteric border and stretched to 150% of the length and 250% of the width. The mucosa and submucosa were removed using fine forceps, and the remaining tissue fixed in 100% denatured ethanol for 30 minutes. […] Tissues were mounted on glass slides using Gel/Mount™ (Biomedia Corp., Foster City, Calif.), cover-slipped and inspected by light microscopy (Nikon FXA, Fryer, Huntley, Ill.) at a magnification of 200×. Numbers of MPO-positive PMN's infiltrating the muscularis extemae were determined from the mean counts collected from five to six adjacent optical fields centered between the mesenteric and anti-mesenteric borders.
compound,measurement,setting,value
"[C-]#[O+] [CO, carbon monoxide]",IL-10 expression versus controls,[1],35 fold
same,IL-6 protein release,"[2]; IM + CO vs IM, 24 hr after surgery",significantly attenuated
same,IL-6 protein release,"[2]; IM mice treated with CO, 24 hr postoperatively",2000 pg/mL
same,surgically induced increase in nitrite release,[3],significantly inhibited
same,MPO-positive cells,[4]; CO-treated control rats (unoperated),rare
same,mean number of MPO positive cells,"[4]; SITx + CO, 24 hours after SITx, not statistically significant (p=0.08, n=6)",decreased
same,Inflammatory infiltrates,"[4]; SITx + CO, Table 2",21 ± 3.2 /200x field
